Experiments:
Type in all cases: cell-based
BTK-GFP = molecular target: T1, BTK-GFP (Homo sapiens, UniProt Q06187+Q96SW2); experiment: BTK-GFP protein abundance flow cytometry assay in HEK293A cells; settings: HEK293A BTK-GFP-iresRFP cells, 24 h; for DC50: GFP signal by flow cytometry, concentration at which 50% maximal degradation was observed; for BTK deg Amax: % protein remaining at the concentration at which maximum degradation is seen
T1 construct: expressed in transfected cells; host or cells: HEK293A (Invitrogen R70507), lentiviral transduction with pLenti6-BTK-GFP-Ires-RFP, blasticidin selection
T1 sequence (Q06187 whole entry): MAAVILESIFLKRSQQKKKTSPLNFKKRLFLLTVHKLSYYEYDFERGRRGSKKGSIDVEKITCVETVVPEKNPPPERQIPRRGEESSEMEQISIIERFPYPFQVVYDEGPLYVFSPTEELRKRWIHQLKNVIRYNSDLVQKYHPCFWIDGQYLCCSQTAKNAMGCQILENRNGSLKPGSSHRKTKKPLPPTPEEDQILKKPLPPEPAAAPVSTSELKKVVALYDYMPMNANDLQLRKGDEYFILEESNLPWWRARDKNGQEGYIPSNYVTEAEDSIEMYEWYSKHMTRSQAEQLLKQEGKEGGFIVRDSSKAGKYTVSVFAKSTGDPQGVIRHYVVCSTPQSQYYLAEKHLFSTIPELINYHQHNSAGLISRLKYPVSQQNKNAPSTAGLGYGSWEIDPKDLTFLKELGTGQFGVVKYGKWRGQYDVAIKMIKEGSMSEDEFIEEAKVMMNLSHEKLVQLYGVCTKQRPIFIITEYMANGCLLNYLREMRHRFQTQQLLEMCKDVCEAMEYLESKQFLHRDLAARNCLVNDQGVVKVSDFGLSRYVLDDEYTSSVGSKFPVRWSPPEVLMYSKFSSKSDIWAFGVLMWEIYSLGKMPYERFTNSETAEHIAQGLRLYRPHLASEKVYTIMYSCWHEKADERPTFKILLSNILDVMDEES
T1 sequence (Q96SW2 whole entry): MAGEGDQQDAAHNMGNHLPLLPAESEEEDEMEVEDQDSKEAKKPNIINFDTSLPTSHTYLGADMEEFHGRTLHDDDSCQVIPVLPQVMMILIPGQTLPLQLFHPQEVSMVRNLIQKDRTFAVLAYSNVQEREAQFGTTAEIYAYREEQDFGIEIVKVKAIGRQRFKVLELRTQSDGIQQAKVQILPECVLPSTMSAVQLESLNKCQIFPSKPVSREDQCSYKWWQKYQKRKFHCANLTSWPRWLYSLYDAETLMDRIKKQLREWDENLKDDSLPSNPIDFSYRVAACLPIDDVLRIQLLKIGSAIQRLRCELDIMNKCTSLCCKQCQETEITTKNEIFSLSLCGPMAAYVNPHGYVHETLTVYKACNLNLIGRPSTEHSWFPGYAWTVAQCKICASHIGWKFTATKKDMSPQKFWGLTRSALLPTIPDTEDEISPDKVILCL
T1 sequence (Q16531 whole entry partner): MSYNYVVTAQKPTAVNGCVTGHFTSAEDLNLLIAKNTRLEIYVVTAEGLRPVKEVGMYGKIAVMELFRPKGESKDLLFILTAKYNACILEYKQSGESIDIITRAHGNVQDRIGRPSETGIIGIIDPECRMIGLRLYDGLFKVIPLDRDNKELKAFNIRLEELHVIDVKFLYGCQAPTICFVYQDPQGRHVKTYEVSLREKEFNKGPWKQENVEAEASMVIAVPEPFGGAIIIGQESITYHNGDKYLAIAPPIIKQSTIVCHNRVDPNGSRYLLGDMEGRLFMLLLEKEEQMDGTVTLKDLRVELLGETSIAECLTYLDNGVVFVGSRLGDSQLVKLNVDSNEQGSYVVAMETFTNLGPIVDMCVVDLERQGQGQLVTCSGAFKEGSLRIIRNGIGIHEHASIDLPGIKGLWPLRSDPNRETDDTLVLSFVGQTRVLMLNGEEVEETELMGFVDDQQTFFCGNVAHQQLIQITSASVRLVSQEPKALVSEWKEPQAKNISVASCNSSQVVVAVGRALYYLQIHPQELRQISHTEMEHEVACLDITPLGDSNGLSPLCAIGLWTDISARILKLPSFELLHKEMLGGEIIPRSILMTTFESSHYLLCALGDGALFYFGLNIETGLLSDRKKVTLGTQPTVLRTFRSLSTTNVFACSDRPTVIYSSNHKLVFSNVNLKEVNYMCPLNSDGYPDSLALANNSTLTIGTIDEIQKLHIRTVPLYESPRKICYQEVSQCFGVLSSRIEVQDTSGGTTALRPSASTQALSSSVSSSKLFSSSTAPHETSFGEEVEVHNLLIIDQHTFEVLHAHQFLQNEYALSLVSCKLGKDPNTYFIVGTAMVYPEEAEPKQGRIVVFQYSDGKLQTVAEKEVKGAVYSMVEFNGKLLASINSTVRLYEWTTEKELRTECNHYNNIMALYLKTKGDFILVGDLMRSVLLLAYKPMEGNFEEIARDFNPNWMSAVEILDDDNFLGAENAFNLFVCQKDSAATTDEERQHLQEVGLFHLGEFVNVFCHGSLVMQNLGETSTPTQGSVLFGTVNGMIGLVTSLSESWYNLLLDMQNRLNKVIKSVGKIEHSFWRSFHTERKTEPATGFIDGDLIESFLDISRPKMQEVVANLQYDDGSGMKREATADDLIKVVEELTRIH
Procedure: (§1) Compounds of the invention were tested in the following cellular assays. The terms in Table 2 are defined as follows: DC50 refers to the concentration at which 50% maximal degradation was observed; deg Amax is the extent of degradation and the value refers to the % protein remaining at the concentration at which maximum degradation is seen; ProI GI50 refers to the proliferation data and defines the concentration at which 50% growth inhibition was observed compared to the vehicle treated control at the end of the incubation time. TMD8 cells are BTK dependent and OCI-LY3 cells are BTK independent.
BTK-GFP and IKZF3-GFP protein abundance flow cytometry assay in HEK293A cells:
Degradation of BTK or IKZF3 was measured in HEK293A cells (Invitrogen R70507) expressing either BTK-GFP and RFP or IKZF3-GFP and RFP from a stably integrated bicistronic BTK-GFP-iresRFP or IKZF3-GFP-iresRFP construct, respectively. Reduction of the GFP signal measured by flow cytometry served as readout for BTK or IKZF3 degradation after degrader treatment.
i) Cloning of the pLenti6-BTK-GFP-1Res-RFP and IKZF3-GFP-Ires-RFP Sensor Vectors
The bicistronic BTK-GFP-iresRFP construct is based on a pLenti6-DEST vector backbone where GFP was introduced into the unique Xho1 site downstream of the destination cassette (DEST) and RFP was cloned behind an internal ribosomal entry site (Ires).
In detail, the sensor construct was engineered by replacing NanoLuciferase (NLuc) by GFP and FireFly luciferase (FF) by RFP from pLenti6-DEST-NLuc-Ires-FF.
The pLenti6-DEST-NLuc-Ires-FF sensor construct was cloned by replacing eGFP from pLenti6-DEST-ires-eGFP with a synthesized stuffer element (encoding Ires-FF with FF flanked by two Nhe1 restriction sites) using blunt end cloning replacing Ires-eGFP between the two PmII. To enable C-terminal tagging with NanoLuciferase (NLuc), NLuc was amplified from pNL1.1 (Promega #N1001) using linker primers with Xho1 sites for ligating into linearized pLenti6-DEST-Ires-FF using Xho1 digest resulting in the construct pLenti6-DEST-NLuc-Ires-FF.
The pLenti6-DEST-NLuc-Ires-FF served as base vector for cloning pLenti6-DEST-GFP-Ires-RFP using Gibson assembly to replace FF with RFP and NLuc with GFP. In a first round FF was replaced by RFP by amplifying RFP from a template using the following Gibson assembly linker primers (Gibson-Nhe1 RFPfw, […]gctagc[…] (SEQ ID NO: 1); Gibson-Nhe1 RFP-Stoprev, […]ctagc[…] (SEQ ID NO: 2)) to clone into pLenti6-DEST-NLuc-Ires-FF digested with Nhe1 and gel-purified to remove the FF fragment. The resulting pLenti6-DEST-NLuc-Ires-RFP vector served as the template to replace NLuc with GFP by amplifying GFP from a template using following Gibson assembly linker primers (Gibson-Xho1 GFPfw, […]c[…] (SEQ ID NO: 3); Gibson-Xho1 GFP-Stoprev, […] (SEQ ID NO: 4)) to clone into pLenti6-DEST-NLuc-Ires-RFP digested with Xho1 and gel-purified to remove the NLuc fragment. All Gibson assembly reactions were performed with Gibson assembly Master Mix (New England Biolabs NEB E261 IL) according to manufacturer's manual, resulting in the destination vector pLenti6-DEST-GFP-Ires-RFP to allow Gateway cloning. To enable gateway cloning and C-terminal GFP tagging of BTK, the BTK open reading frame (ORF) was first shuttled from a pcDNA-DEST40-BTK vector (Invitrogen library ID INV_20090504v1) into pDONR221 (Invitrogen 12536-017) vector using a gateway BP reaction according to the manufacturer's manual (Invitrogen 11789-013) resulting in the novel construct pENTR221-BTK. For C-terminal tagging the STOP codon was mutated to a leucine performing a mutagenesis reaction with the following primers (pENTR221-BTK Quikchange STOP-Leu fw, gtcatggatgaagaatccTTGaacccagctttcttgtac; pENTR221-BTK Quikchange STOP-Leu REVC, gtacaagaaagctgggttCAAggattcttcatccatgac) using the QuikChange Lightning mutagenesis kit (Agilent Technologies #210518) according to the manufacturer's manual, resulting in pENTR221-BTK (STOP-Leu). […]

TMD8 cells = experiment: Resazurin cell viability (proliferation) assay in TMD8 DLBCL cells; settings: Homo sapiens, TMD8 cells (BTK dependent), 72 h, 50% growth inhibition vs vehicle, read-out: TMD8 Prol GI50
Procedure: as §1
(§2) Cell Viability Assay in DLBCL (Diffuse Large B-Cell Lymphoma) Cells:
(§3) The effect of the BTK compounds on cell proliferation was measured by a Resazurin (Sigma, #R7017) based cell viability assay. TMD8 (BTK compound sensitive) and OCI-LY3 (BTK compound insensitive) cells were incubated for 72 h at 37° C. and 5% CO2 with the corresponding compound, Resazurin is a non-toxic, cell-permeable substrate that is virtually non-fluorescent. Upon entering living cells, Resazurin (Sigma, #R7017) is reduced to highly fluorescent Resorufin. The metabolic activity was assessed by measuring the fluorescence signal (ex. 530 nm; em. 600 nm).
(§4) TMD8 and OCI-Ly3 cells were seeded at day 0 in triplicates at a cell density of 1×10^4 cells per 150 μl/well in a 96-well plate (Costar #3904). Additional plates were prepared, in order to assess the basal metabolic activity of both cell lines at the beginning of the experiment. For these reference plates, Resazurin (Sigma, #R7017) was added to a final concentration of 13 μg/ml 3 h post seeding and was incubated for 2 h at 37° C. and 5% CO2. Following incubation, the fluorescent signal intensity of the 96-well plates was measured on a Mithras LB940 multimode plate reader at 530/600 nm (Berthold Technologies, Germanyl).
(§5) In parallel, 3 h post-seeding, test-plates were treated with compound at various concentrations, or with vehicle (DMSO) alone for 3 days. The compound addition to the plates was performed by using a HP D300 digital dispenser (TECAN, Switzerland). The compounds were tested in triplicate, 8-point serial dilution (1:4), with a start concentration of 10 μM for OCI-LY3 and 1 μM for the TMD8 cells, respectively. To assess the relative proliferation of the cells, Resazurin was added to each well directly to the medium to a final concentration of 13 μg/ml. The plates were incubated for 2 h at 37° C. and 5% CO2 to result in a 72 h endpoint. Following incubation, the fluorescent signal intensity of the 96-well plates were measured on a Mithras LB940 multimode plate reader at 530/600 nm (Berthold Technologies, Germanyl). The formation of Resorufin dye directly correlates with the number of metabolically active cells. For each triplicate treatment the mean and standard deviation were calculated and analyzed via curve fitting software to determine the respective compound concentration resulting in 50% growth inhibition (GI50) values. For each compound GI50 values were typically determined from at least 2 entirely independent experiments.
TMD8 cells were acquired through a license agreement with Tokyo Medical and Dental University, Japan. Cells are cultivated in MEM Alpha (BioConcept, #1-23F01-1, lot. LB04262P) supplemented with 10% FCS (HyClone, GE #SH30066.03, lot AB3217603), 2 mM L-Glutamine (BioConcept, #5-10K50-H, lot. LA03467P), 1% Pen/Strep (BioConcept, #4-01F00-H, lot. LB04235P).

OCI-LY3 cells = experiment: Resazurin cell viability (proliferation) assay in OCI-LY3 DLBCL cells; settings: Homo sapiens, OCI-LY3 cells (BTK independent), 72 h, 50% growth inhibition vs vehicle, read-out: OCI-LY3 Prol GI50
Procedure: as §1, §2, §3, §4, §5
OCI-LY3 cells were acquired through a license agreement with University Health Network, Toronto, Canada. Cells are cultivated in RPM11640 media (Gibco, #61870-010, lot. 1894759), supplemented with 10% FCS (HyClone, GE #SH30066.03, lot AB217603), 2 mM L-Glutamine (BioConcept, #5-10K50-H, lot. LA03467P), 1 mM Sodium Pyruvate (BioConcept, #5-60F00-H, lot. LB10510P), 10 mM HEPES (Gibco, #15630-056, lot. 1854074), 1% Pen/Strep (BioConcept, #4-01F00-H, lot. LB04235P).

Structure (SMILES)	DC50 (BTK-GFP) [nM]	BTK deg Amax (BTK-GFP) [%]	GI50 (OCI-LY3 cells) [nM]	GI50 (TMD8 cells) [nM]
Cc1c(NC(=O)c2ccc(C(C)(C)O)cc2F)cc(F)cc1-c1ncnc2[nH]c(-c3ccc(CN4CCC5(CC4)CN(CCNC(=O)c4ccc(Cl)c(N6CCC(=O)NC6=O)c4)CCO5)cc3)cc12 [Compound 37, N-(3-(6-(4-((4-(2-(4-chloro-3-(2,4-dioxotetrahydropyrimidin-1(2H)-yl)benzamido)ethyl)-1-oxa-4,9-diazaspiro[5.5]undecan-9-yl)methyl)phenyl)-7H-pyrrolo[2,3-d]pyrimidin-4-yl)-5-fluoro-2-methylphenyl)-2-fluoro-4-(2-hydroxypropan-2-yl)benzamide]	11.3	6.5	4220	1.93
COc1ccc(C(=O)N2CCC(OCCN3CCC(Oc4ccc(-c5cc6c(-c7cc(F)cc(NC(=O)c8ccc(C(C)(C)O)cc8F)c7C)ncnc6[nH]5)cc4)CC3)CC2)cc1N1CCC(=O)NC1=O [Compound 58, N-(3-(6-(4-((1-(2-((1-(3-(2,4-dioxotetrahydropyrimidin-1(2H)-yl)-4-methoxybenzoyl)piperidin-4-yl)oxy)ethyl)piperidin-4-yl)oxy)phenyl)-7H-pyrrolo[2,3-d]pyrimidin-4-yl)-5-fluoro-2-methylphenyl)-2-fluoro-4-(2-hydroxypropan-2-yl)benzamide]	0.9	1.8	4920	0.56
COc1ccc(C(=O)N2CCC3(CCN(Cc4ccc(-c5cc6c(-c7cc(F)cc(NC(=O)c8ccc(C(C)(C)O)cc8F)c7C)ncnc6[nH]5)cc4)C3)CC2)cc1N1CCC(=O)NC1=O [Compound 49, N-(3-(6-(4-((8-(3-(2,4-dioxotetrahydropyrimidin-1(2H)-yl)-4-methoxybenzoyl)-2,8-diazaspiro[4.5]decan-2-yl)methyl)phenyl)-7H-pyrrolo[2,3-d]pyrimidin-4-yl)-5-fluoro-2-methylphenyl)-2-fluoro-4-(2-hydroxypropan-2-yl)benzamide]	70.3	49.4	4840	5.35

More lines, in order of falling DC50 (BTK-GFP), values ahead:

DC50 (BTK-GFP) [nM]	BTK deg Amax (BTK-GFP) [%]	GI50 (OCI-LY3 cells) [nM]	Structure (SMILES)	GI50 (TMD8 cells) [nM]
2580	43.7	> 10000	COc1ccc(C(=O)NCCN2CC3(CCN(Cc4ccc(-c5cc6c(-c7cc(F)cc(NC(=O)c8ccc(C(C)(C)O)cc8F)c7C)ncnc6[nH]5)cc4)CC3)C2)cc1N1CCC(=O)NC1=O [Compound 52, N-(3-(6-(4-((2-(2-(3-(2,4-dioxotetrahydropyrimidin-1(2H)-yl)-4-methoxybenzamido)ethyl)-2,7-diazaspiro[3.5]nonan-7-yl)methyl)phenyl)-7H-pyrrolo[2,3-d]pyrimidin-4-yl)-5-fluoro-2-methylphenyl)-2-fluoro-4-(2-hydroxypropan-2-yl)benzamide]	22.7
14.4	8.9	4400	Cc1c(NC(=O)c2ccc(C(C)(C)O)cc2F)cc(F)cc1-c1ncnc2[nH]c(-c3ccc(CN4CCC5(CCN(CCCNC(=O)c6ccc(Cl)c(N7CCC(=O)NC7=O)c6)CC5)CC4)cc3)cc12 [Compound 57, N-(3-(6-(4-((9-(3-(4-chloro-3-(2,4-dioxotetrahydropyrimidin-1(2H)-yl)benzamido)propyl)-3,9-diazaspiro[5.5]undecan-3-yl)methyl)phenyl)-7H-pyrrolo[2,3-d]pyrimidin-4-yl)-5-fluoro-2-methylphenyl)-2-fluoro-4-(2-hydroxypropan-2-yl)benzamide]	1.16
0.7	3.3	6120	COc1ccc(C(=O)N2CCC(CN3CCN(Cc4ccc(-c5cc6c(-c7cc(F)cc(NC(=O)c8ccc(C(C)(C)O)cc8F)c7C)ncnc6[nH]5)cc4)CC3)CC2)cc1N1CCC(=O)NC1=O [Compound 7, N-(3-(6-(4-((4-((1-(3-(2,4-Dioxotetrahydropyrimidin-1(2H)-yl)-4-methoxybenzoyl)piperidin-4-yl)methyl)piperazin-1-yl)methyl)phenyl)-7H-pyrrolo[2,3-d]pyrimidin-4-yl)-5-fluoro-2-methylphenyl)-2-fluoro-4-(2-hydroxypropan-2-yl)benzamide]	0.39

Source: patent publication US12441733B2, “Substituted 2,4-dioxotetrahydropyrimidines as intermediates in the synthesis of bruton's tyrosine kinase inhibitors” (Novartis AG, priority 2018, dated 2025)
